Assay results taken from BindingDB's records for doi:10.3109/14756366.2010.521745 (Sun Yat-Sen University, 2011).

The molecules below were run against T1, Polyphenol oxidase 1 (White button mushroom, UniProt Q00024) (assay: Tyrosinase Inhibition Assay). Conditions: pH 6.8; 25 °C.
T1 sequence (Q00024 whole entry): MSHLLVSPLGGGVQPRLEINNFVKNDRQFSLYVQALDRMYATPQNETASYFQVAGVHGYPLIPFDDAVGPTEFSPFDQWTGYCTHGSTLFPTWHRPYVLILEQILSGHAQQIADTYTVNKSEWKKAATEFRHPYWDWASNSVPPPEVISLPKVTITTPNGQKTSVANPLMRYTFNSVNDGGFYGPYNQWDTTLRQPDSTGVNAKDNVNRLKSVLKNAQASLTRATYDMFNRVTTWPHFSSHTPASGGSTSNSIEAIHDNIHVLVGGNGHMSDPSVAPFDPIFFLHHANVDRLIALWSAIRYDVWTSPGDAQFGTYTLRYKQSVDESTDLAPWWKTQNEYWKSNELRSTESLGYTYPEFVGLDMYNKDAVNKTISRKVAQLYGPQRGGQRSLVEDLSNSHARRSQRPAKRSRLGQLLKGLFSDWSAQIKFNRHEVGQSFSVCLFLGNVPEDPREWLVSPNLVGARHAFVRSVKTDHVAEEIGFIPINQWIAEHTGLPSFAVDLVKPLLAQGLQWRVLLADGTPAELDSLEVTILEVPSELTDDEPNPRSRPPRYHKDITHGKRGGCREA
Description: In brief, a 10 μL sample was added to an assay mixture containing with 10 μL tyrosinase solution (0.5 mg/mL) and 900 μL phosphate buffer (pH 6.8) to a total volume assay mixture of 920 μL, for 20 min at 25°C. Then 80 μL of L-dopa (1.50 mg/mL) was added to the reaction mixture and the enzyme reaction was monitoredby measuring the change in absorbance at 475 nm of the L-dopa for 1 min.
Molecule `O=C(c1ccc(O)cc1)c1ccc(O)c(O)c1O` [hsp90_136] has an IC50 of over 100 µM.
For `O=C(c1ccccc1)c1cccc(O)c1O` [Polyhydroxy benzophenone, 18], the IC50 was over 200 µM.
`O=C(c1ccccc1)c1c(O)cc(O)cc1O` [Polyhydroxy benzophenone, 16] gave an IC50 of over 200 µM.
`COc1cc(C(=O)c2ccc(O)cc2O)ccc1O` [Polyhydroxy benzophenone, 5] showed an IC50 of over 200 µM.
For `O=C(c1ccccc1)c1ccc(O)c(O)c1O` [phenyl(2,3,4-trihydroxyphenyl)methanone], the IC50 was 10.5 µM.
`O=C(c1cccc(O)c1)c1ccc(O)cc1O` [Polyhydroxy benzophenone, 12] gave an IC50 of over 200 µM.
Work on `O=C(c1cc(O)c(O)c(O)c1)c1ccc(O)c(O)c1O` [Polyhydroxy benzophenone, 10] yielded an IC50 of 1.4 µM.
`O=C(c1cc(O)c(O)c(O)c1)c1ccc(O)cc1O` [Polyhydroxy benzophenone, 6] showed an IC50 of 17.4 µM.
`O=C(c1ccccc1O)c1ccc(O)c(O)c1O` [Polyhydroxy benzophenone, 15] gave an IC50 of 8.8 µM.
`O=C(c1ccc(O)cc1O)c1ccc(O)c(O)c1O` [Polyhydroxy benzophenone, 8] gave an IC50 of 10.1 µM.
For `COc1cc(C(=O)c2ccc(O)c(O)c2O)ccc1O` [Polyhydroxy benzophenone, 9], the IC50 was 6.4 µM.
Molecule `O=C(c1ccc(O)cc1)c1cc(O)c(O)c(O)c1` [Polyhydroxy benzophenone, 14] has an IC50 of 98.3 µM.
`O=C(c1ccc(O)cc1O)c1c(O)cc(O)cc1O` [Polyhydroxy benzophenone, 11] gave an IC50 of over 200 µM.
For `O=C(c1ccc(O)cc1O)c1ccc(O)cc1O` [Polyhydroxy benzophenone, 4], the IC50 was over 200 µM.
